Molecular target: human IDO1 (Homo sapiens, UniProt P14902)
Experiment: Assessment of human IDO-1 inhibitory activity in HEK cells (human IDO1/HEK293 cells, kynurenine read-out with Ehrlich reagent, absorbance 490 nm)
Type: cell-based
Set-up: expressed in transfected cells
Details: HEK Human IDO-1 cellular assay
In short: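 HEK293 cells stably expressing human IDO1 were seeded at 10,000 per well in phenol red-free RPMI with 10% FBS, treated with compound for 20 h at 37 °C. Kynurenine was measured after TCA (0.2% final) and 30 min at 50 °C, using Ehrlich reagent, A490. IC50 normalised to DMSO (0%) and 500 nM reference standard (100%).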

human IDO1, sequence (P14902 whole entry): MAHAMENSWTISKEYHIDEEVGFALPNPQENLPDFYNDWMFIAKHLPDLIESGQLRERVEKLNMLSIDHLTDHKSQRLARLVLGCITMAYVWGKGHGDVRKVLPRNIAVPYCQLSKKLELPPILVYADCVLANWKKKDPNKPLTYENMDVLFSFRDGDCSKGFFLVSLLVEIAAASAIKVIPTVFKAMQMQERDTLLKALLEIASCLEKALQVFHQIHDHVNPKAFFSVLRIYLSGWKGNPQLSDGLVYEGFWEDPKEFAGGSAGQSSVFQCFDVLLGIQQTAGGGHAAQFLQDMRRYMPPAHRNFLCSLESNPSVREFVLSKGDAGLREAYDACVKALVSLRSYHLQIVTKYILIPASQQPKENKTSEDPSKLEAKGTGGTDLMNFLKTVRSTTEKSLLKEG

Compound | IC50 [nM]
COCC(CC(=O)O)c1cc(F)c(N(CC(C)C)CC(C)C)c(NC(=O)Nc2ccc(C)cc2)c1 (single isomer, unassigned) [Example 1186, 3-(4-(Diisobutylamino)-3-fluoro-5-(3-(p-tolyl)ureido)phenyl)-4-methoxybutanoic acid] | < 5
COCC(CC(=O)O)c1cc(F)c(N(CC(C)C)CC(C)C)c(NC(=O)Nc2ccc(OC)cc2F)c1 (single isomer, unassigned) [Example 1176, 3-(4-(Diisobutylamino)-3-fluoro-5-(3-(2-fluoro-4-methoxyphenyl)ureido)phenyl)-4-methoxybutanoic acid] | < 5
CCN(c1ccc([C@@H](COC)CC(=O)O)cc1Nc1ccc(Cl)cc1)C1CCOCC1 (single isomer, unassigned) [Example 376] | < 5
CC(C)CN(c1ccc(C(CC(=O)O)C2CC2)cc1NC(=O)Nc1cncnc1)C1CCOCC1 (single isomer, unassigned) [Example 1207 Enantiomer 1, 3-Cyclopropyl-3-(4-(isobutyl(tetrahydro-2H-pyran-4-yl)amino)-3-(3-(pyrimidin-5-yl)ureido)phenyl)propanoic acid] | > 50
CC(CC(=O)O)c1ccc(N(CC(C)(C)O)C2CCOCC2)c(Nc2ccc(Cl)cc2)c1 (single isomer, unassigned) [Example 195, 3-(3-((4-Chlorophenyl)amino)-4-((2-hydroxy-2-methylpropyl)(tetrahydro-2H-pyran-4-yl)amino)phenyl)butanoic acid] | < 5
COCC(CC(=O)O)c1cc(F)c(N(CC(C)C)CC(C)C)c(NC(=O)Nc2cc(C)on2)c1 (single isomer, unassigned) [Example 1184, 3-(4-(Diisobutylamino)-3-fluoro-5-(3-(5-methylisoxazol-3-yl)ureido)phenyl)-4-methoxybutanoic acid] | < 50
CCC(CC(=O)O)c1ccc(N(CC(C)C)C2CCCCC2)c(Nc2ccc(Cl)c(OC(F)F)c2)c1 (single isomer, unassigned) [Example 649] | < 50
CCC(CC(=O)O)c1ccc(N2CCC[C@H]2C(C)(C)O)c(NC(=O)Nc2ccc(OC)cc2F)c1 (single isomer, unassigned) [Example 814] | > 50
COCC(CC(=O)O)c1ccc(N(CC(C)C)CC(C)C)c(NC(=O)Nc2ccc(C)cc2)c1 (single isomer, unassigned) [993-1] | < 50
COCC(CC(=O)O)c1ccc(N(CC(C)C)C2CCCCC2)c(NC(=O)Nc2ccc(OC(F)(F)F)cc2)c1 (single isomer, unassigned) [Example 1244, 3-(4-(Cyclohexyl(isobutyl)amino)-3-(3-(4-(trifluoromethoxy)phenyl)ureido)phenyl)-4-methoxybutanoic acid] | < 5
CCC(CC(=O)O)c1ccc(N(CC(C)C)C(C)C)c(Nc2ccc3nc(C)sc3c2)c1 (single isomer, unassigned) [Example 729, 3-(4-(isobutyl(isopropyl)amino)-3-((2-methylbenzo[d]thiazol-6-yl)amino)phenyl)pentanoic acid] | > 50
CCOc1ncc(Nc2cc(C(C)CC(=O)O)ccc2N2CCC[C@H]2C(C)(C)O)cn1 (single isomer, unassigned) [Example 800] | > 50
CC[C@@H](CC(=O)O)c1ccc(N(CC)C2CCCCC2)c(Nc2ccc(C#N)cc2)c1 (single isomer, unassigned) [Example 283] | < 5
CCC(CC(=O)O)c1ccc(N2CCC[C@H]2C(C)(C)F)c(Nc2ccc3nc(C)sc3c2)c1 (single isomer, unassigned) [Example 794] | < 50
CCOc1ccc(NC(=O)Nc2cc(C(CC(=O)O)C3CC3)ccc2N(CC(C)C)C2CCOCC2)cc1 (racemic) [Example 1204, (+/−)-3-Cyclopropyl-3-(3-(3-(4-ethoxyphenyl)ureido)-4-(isobutyl(tetrahydro-2H-pyran-4-yl)amino)phenyl)propanoic acid] | < 50
CCC(CC(=O)O)c1cc(F)c(N(CC(C)C)CC(C)C)c(NC(=O)Cc2ccc(F)cc2F)c1 (racemic) [Example 1082] | < 5
CCOc1ccc(NC(=O)Nc2cc(C(CC)CC(=O)O)c(F)cc2N(CC(C)C)C2CCCCC2)cc1 (racemic) [Example 952, (+/−)-3-(4-(Cyclohexyl(isobutyl)amino)-5-(3-(4-ethoxyphenyl)ureido)-2-fluorophenyl)pentanoic acid] | < 5
CCOc1ncc(Nc2cc(C(CC)CC(=O)O)ccc2N(CC)C2CCCOC2)cn1 (single isomer, unassigned) [Example 69, 3-(3-((2-ethoxypyrimidin-5-yl)amino)-4-(ethyl(tetrahydro-2H-pyran-3-yl)amino)phenyl)pentanoic acid] | < 5
CC[C@@H](CC(=O)O)c1ccc(N(CC(C)(C)O)C2CCCCC2)c(Nc2ccc(Cl)cc2)c1 (single isomer, unassigned) [Example 231] | < 5
CC[C@@H](CC(=O)O)c1ccc(N2CCOC[C@@H]2C(C)C)c(NC(=O)Nc2ccc(C)cc2)c1 (single isomer, unassigned) [Example 74] | > 50
CCOc1ccc(NC(=O)Nc2cc(C(CC)CC(=O)O)c(F)cc2N(CC(C)C)CC(C)C)cc1 (racemic) [Example 1131, (±)-3-(4-(Diisobutylamino)-5-(3-(4-ethoxyphenyl)ureido)-2-fluorophenyl)pentanoic acid] | < 5
CCCN(c1ccc(C(CC)CC(=O)O)cc1NC(=O)Nc1cnc(C)nc1)C1CCOCC1 (racemic) [Example 610, 3-(3-(3-(2-methylpyrimidin-5-yl)ureido)-4-(propyl(tetrahydro-2H-pyran-4-yl)amino)phenyl)pentanoic acid] | > 50
COCC(CC(=O)O)c1ccc(N(CC2CC2)C2CCOCC2)c(Nc2ccc(Cl)c(OCC(F)F)c2)c1 (single isomer, unassigned) [Example 684, 3-(3-((4-chloro-3-(2,2-difluoroethoxy)phenyl)amino)-4-((cyclopropylmethyl) (tetrahydro-2H-pyran-4-yl)amino)phenyl)-4-methoxybutanoic acid] | < 50
CCOc1ccc(NC(=O)Nc2cc(C(C)(C)CC(=O)O)ccc2N(CC)C2CCOCC2)cc1 [Example 166, 3-(3-(3-(4-Ethoxyphenyl)ureido)-4-(ethyl(tetrahydro-2H-pyran-4-yl)amino)phenyl)-3-methylbutanoic acid] | > 50

Further lines, results first:

IC50 [nM] | Compound
< 5 | CCC(CC(=O)O)c1ccc(N(CC(C)C)C2CCCCC2)c(Nc2ccc(Cl)c(OC(F)F)c2)c1 (single isomer, unassigned) [Example 642]
< 5 | CCOc1ncc(Nc2cc([C@H](CC)CC(=O)O)ccc2N(CC)C2CCCCC2)cn1 (single isomer, unassigned) [Example 287]
< 5 | COCC(CC(=O)O)c1cc(F)c(N(CC(C)C)C2CCCCC2)c(NC(=O)Nc2ccc(C)cc2)c1 (single isomer, unassigned) [Example 1155, 3-(4-(cyclohexyl(isobutyl)amino)-3-fluoro-5-(3-(p-tolyl)ureido)phenyl)-4-methoxybutanoic acid]
> 50 | CCOc1ccc(Nc2cc(C(C)CC(=O)O)ccc2N(CC(C)(C)O)C2CCCCC2)c(F)c1 (single isomer, unassigned) [Example 52, 3-(4-(cyclohexyl(2-hydroxy-2-methylpropyl)amino)-3-((4-ethoxy-2-fluorophenyl)amino)phenyl)butanoic acid]
< 50 | CCc1ccc(Nc2cc([C@H](CC)CC(=O)O)ccc2N(CC(C)(C)O)C2CCCCC2)cc1 (single isomer, unassigned) [Example 239]
< 5 | CC[C@H](CC(=O)O)c1ccc(N(CC)C2CCOCC2)c(Nc2ccc(C#N)cc2)c1 (single isomer, unassigned) [Example 501]
> 50 | CCOc1ncc(Nc2cc([C@@H](CC)CC(=O)O)ccc2N(CC2CC2)CC(C)(C)O)cn1 (single isomer, unassigned) [Example 270]
< 5 | CCC(CC(=O)O)c1cc(NC(=O)Nc2cnc(C)nc2)c(N(CC(C)C)C2CCCCC2)cc1F (racemic) [Example 1125, (±)-3-(4-(Cyclohexyl(isobutyl)amino)-2-fluoro-5-(3-(2-methylpyrimidin-5-yl)ureido)phenyl)pentanoic acid]
< 50 | CCC(CC(=O)O)c1ccc(N2CCC[C@H]2C(C)(C)O)c(Nc2ccc(Cl)cc2)c1 (single isomer, unassigned) [Example 836]
< 50 | CCOc1ncc(Nc2cc([C@H](CC)CC(=O)O)ccc2N2CCOC[C@@H]2C(C)C)cn1 (single isomer, unassigned) [Example 94]
< 50 | CC[C@H](CC(=O)O)c1ccc(N2CCC[C@H]2C(C)(C)F)c(NC(=O)Nc2ccc(Cl)cc2F)c1 (single isomer, unassigned) [Example 791]
> 50 | CCC(CC(=O)O)c1ccc(N2CCOC[C@H]2C(C)C)c(NC(=O)Nc2cc(C)on2)c1 (single isomer, unassigned) [Example 898]
> 50 | CCOc1ncc(Nc2cc([C@@H](CC)CC(=O)O)ccc2N(CC(C)(C)O)C2CCOCC2)cn1 (single isomer, unassigned) [Example 197]
> 50 | CCC(CC(=O)O)c1ccc(N2CCC[C@@H]2COC)c(NC(=O)Cc2ccc(C)cc2)c1 (single isomer, unassigned) [Example 1144]
> 50 | CCOc1ccc(NC(=O)Nc2cc([C@H](CC)CC(=O)O)ccc2N(CC(C)C)C2CCS(=O)(=O)CC2)cc1 (single isomer, unassigned) [Example 212]
< 5 | CCC(CC(=O)O)c1cc(F)c(N(CC(C)C)CC(C)C)c(NC(=O)Cc2ccc(F)cc2F)c1 (single isomer, unassigned) [Example 1093 E1]
< 5 | CCCN(c1ccc([C@@H](CC)CC(=O)O)cc1Nc1ccc(C#N)cc1)C1CCOCC1 (single isomer, unassigned) [Example 536]
< 50 | CC[C@@H](CC(=O)O)c1ccc(N2CCOC[C@@H]2C(C)C)c(Nc2ccc3c(c2)OC(F)(F)O3)c1 (single isomer, unassigned) [Example 81]
